The species entered for test [1] is Rattus norvegicus. As to the kind of experiment: Growth hormone release was determined in rat pituitary cells at 1 uM; A - weakly active. It counts as functional, cell-based. The following applies: Pituitary gland cell.
The species entered for test [2] is Rattus norvegicus. The experiment in a line: Growth hormone release from rat pituitary cells. The class given is functional. The following applies: Pituitary gland cell, read-out: ED50 (the source's name).

Structures are written as SMILES.

Consider `CC(C)(CC(=O)N[C@@H]1CCc2ccccc2N(Cc2ccc(-c3ccccc3-c3nn[nH]n3)cc2)C1=O)NCC(=O)O`, for which the “Growth hormone release activity call at 1 uM” value in the test listed under Rattus norvegicus [1] is “Weak activity”. For `CC(C)[C@@H](O)CNC(C)(C)CC(=O)N[C@@H]1CCc2ccccc2N(Cc2ccc(-c3ccccc3-c3nn[nH]n3)cc2)C1=O`, in the test filed under Rattus norvegicus [2], the EC50 was 200 nM.

Take `C[C@H](O)CCNC(C)(C)C(=O)N[C@@H]1CCc2ccccc2N(Cc2ccc(-c3ccccc3-c3nn[nH]n3)cc2)C1=O`: in the test filed under Rattus norvegicus [2], the EC50 was determined as 50 nM. On the same count and under the same terms, in the case of `CCCNC(C)(C)CC(=O)N[C@@H]1CCc2ccccc2N(Cc2ccc(-c3ccccc3-c3nn[nH]n3)cc2)C1=O` it was 50 nM; in that of `C[C@@H](O)CNC(C)(C)C(=O)N[C@@H]1CCc2ccccc2N(Cc2ccc(-c3ccccc3-c3nn[nH]n3)cc2)C1=O`, 300 nM; in that of `CC(C)(N)CC(=O)N[C@@H]1CCc2ccccc2N(Cc2ccc(-c3ccccc3-c3nn[nH]n3)cc2)C1=O`, 60 nM. On the same count and under the same terms, in the case of `CO[C@H](C)CNC(C)(C)CC(=O)N[C@@H]1CCc2ccccc2N(Cc2ccc(-c3ccccc3-c3nn[nH]n3)cc2)C1=O` it was 20 nM; in that of `C[C@@H](O)CCNC(C)(C)CC(=O)N[C@@H]1CCc2ccccc2N(Cc2ccc(-c3ccccc3-c3nn[nH]n3)cc2)C1=O`, 10 nM. As for `C[C@H](O)CNC(C)(C)CC(=O)N[C@@H]1CCc2ccccc2N(Cc2ccc(-c3ccccc3-c3nn[nH]n3)cc2)C1=O`, the EC50 in the test filed under Rattus norvegicus [2] came to 7 nM.

In the case of `C[C@@H](O)CCNC(C)(C)C(=O)N[C@@H]1CCc2ccccc2N(Cc2ccc(-c3ccccc3-c3nn[nH]n3)cc2)C1=O`, the EC50 in the test filed under Rattus norvegicus [2] is 100 nM. As for `C[C@H](O)CCNC(C)(C)CC(=O)N[C@@H]1CCc2ccccc2N(Cc2ccc(-c3ccccc3-c3nn[nH]n3)cc2)C1=O`, the “Growth hormone release activity call at 1 uM” value in the test filed under Rattus norvegicus [1] was “Weak activity”. With `CC(C)(O)CNC(C)(C)CC(=O)N[C@@H]1CCc2ccccc2N(Cc2ccc(-c3ccccc3-c3nn[nH]n3)cc2)C1=O`, the EC50 in the test filed under Rattus norvegicus [2] stood at 10 nM.

In the case of `CC(C)[C@H](O)CNC(C)(C)CC(=O)N[C@@H]1CCc2ccccc2N(Cc2ccc(-c3ccccc3-c3nn[nH]n3)cc2)C1=O`, the EC50 in the test filed under Rattus norvegicus [2] came to 1000 nM. Still for that read-out and setting: then `CC(C)(CC(=O)N[C@@H]1CCc2ccccc2N(Cc2ccc(-c3ccccc3-c3nn[nH]n3)cc2)C1=O)NC[C@H](O)c1ccccc1`, with 1000 nM; and `C[C@@H](O)CNC(C)(C)CC(=O)N[C@@H]1CCc2ccccc2N(Cc2ccc(-c3ccccc3-c3nn[nH]n3)cc2)C1=O` [L-692585], with 3 nM.

Turning to `CC(C)(CC(=O)N[C@@H]1CCc2ccccc2N(Cc2ccc(-c3ccccc3-c3nn[nH]n3)cc2)C1=O)NCCOCc1ccccc1`, the “Growth hormone release activity call at 1 uM” value in the test listed under Rattus norvegicus [1] is “Weak activity”.

In the case of `C[C@@H](F)CNC(C)(C)CC(=O)N[C@@H]1CCc2ccccc2N(Cc2ccc(-c3ccccc3-c3nn[nH]n3)cc2)C1=O`, in the test filed under Rattus norvegicus [2], the EC50 worked out at 90 nM. In the case of `C[C@H](O)CNC(C)(C)C(=O)N[C@@H]1CCc2ccccc2N(Cc2ccc(-c3ccccc3-c3nn[nH]n3)cc2)C1=O`, in the test listed under Rattus norvegicus [2], the EC50 turned out to be 700 nM.

Turning to `CC(=O)O[C@@H](C)CNC(C)(C)CC(=O)N[C@@H]1CCc2ccccc2N(Cc2ccc(-c3ccccc3-c3nn[nH]n3)cc2)C1=O`, the EC50 in the test listed under Rattus norvegicus [2] stood at 200 nM. On the same count and under the same terms, in the case of `CC(C)(N)C(=O)N[C@@H]1CCc2ccccc2N(Cc2ccc(-c3ccccc3-c3nn[nH]n3)cc2)C1=O` it was 30 nM. Same read-out and setting: in the case of `CC(C)(CC(=O)N[C@@H]1CCc2ccccc2N(Cc2ccc(-c3ccccc3-c3nn[nH]n3)cc2)C1=O)NC[C@H](O)CO` it was 10 nM; in that of `CC(C)(CC(=O)N[C@@H]1CCc2ccccc2N(Cc2ccc(-c3ccccc3-c3nn[nH]n3)cc2)C1=O)NC[C@H](O)[C@@H](O)CO`, 40 nM; in that of `CCOC(=O)CNC(C)(C)CC(=O)N[C@@H]1CCc2ccccc2N(Cc2ccc(-c3ccccc3-c3nn[nH]n3)cc2)C1=O`, 56 nM. On the same count and under the same terms, then `CC(C)(CC(=O)N[C@@H]1CCc2ccccc2N(Cc2ccc(-c3ccccc3-c3nn[nH]n3)cc2)C1=O)NCCO`, with 30 nM. Turning to `C[C@H](CNC(C)(C)CC(=O)N[C@@H]1CCc2ccccc2N(Cc2ccc(-c3ccccc3-c3nn[nH]n3)cc2)C1=O)OCc1ccccc1`, the “Growth hormone release activity call at 1 uM” value in the test filed under Rattus norvegicus [1] is “Weak activity”.

Values taken from ChEMBL document CHEMBL1128018, “Structure-activity relationships of the non-peptidyl growth hormone secretagogue L-692,429” (1994).
